Values joined by “and” are separate entries in the source; they are usually repeats but may differ in a detail not shown here. Equal entries are not always repeated. Structures can show the parent of a compound that is named as a salt.
Columns and labels:
[1] = target: T1, human RORγt LBD (Homo sapiens, UniProt P51449); assay: RORγt (LBD) reporter assay in HEK293T cells; assay type: cell-based; details: for inhibition at 6 µM: HEK-293T, read-out: RORγt (LBD) Reporter Assay, % inhibition @ 6 μM, 6 μM compound; for RORγt (LBD) Reporter Assay, % inhibition @ 6 μM: 6 μM compound
T1 construct: expressed in transfected cells; host or cells: HEK293T
T1 sequence (P51449 258-518): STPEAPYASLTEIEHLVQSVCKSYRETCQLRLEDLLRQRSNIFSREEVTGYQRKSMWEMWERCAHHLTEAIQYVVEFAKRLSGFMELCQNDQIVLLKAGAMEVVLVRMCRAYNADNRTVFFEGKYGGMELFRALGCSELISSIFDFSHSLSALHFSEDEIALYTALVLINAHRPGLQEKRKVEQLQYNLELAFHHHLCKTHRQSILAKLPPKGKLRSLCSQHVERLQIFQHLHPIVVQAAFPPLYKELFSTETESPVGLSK
Excerpt: RORγt (LBD) Reporter Assay
Cells used in the assay were co-transfected with two constructs. The first construct, pBIND-RORγt LBD, contained the wild type human RORγt LBD fused to the DNA binding domain of the GAL4 protein. The second construct, pGL4.31 (Promega Cat no. C935A), contained multiple GAL4 responsive DNA elements upstream of firefly luciferase. […] The mutant construct was called pBIND-RORγt-AF2.
The pBIND vector contains the GAL4 DNA Binding Domain (GAL4 DBD) and the renilla luciferase gene under control of the SV40 promoter. Renilla luciferase expression serves as a control for transfection efficiency and cell viability.
The reporter assay was performed by transiently transfecting HEK293T cells with 5 μg of pBIND-RORγt LBD or pBIND-RORγt LBD-AF2 and 5 μg pGL4.31 (Promega Cat no. C935A) using Fugene 6 (Invitrogen Cat no. E2691) at a 1:6 ratio of DNA:Fugene 6 in a T-75 flask in which cells were at least 80% confluent. Twenty four hours after bulk transfection, cells were plated into 96-well plates at 50,000 cells/well in phenol-red free DMEM containing 5% Lipid Reduced FCS and Pen/Strep. Six hours after plating, cells were treated with compounds for 24 hours. Media was removed and cells were lysed with 50 μL 1× Glo Lysis Buffer (Promega). Dual Glo Luciferase Reagent (50 μL/well) was then added and firefly luciferase luminescence was read on an Envision after a ten minute incubation. Finally, Stop and Glo reagent (50 μL/well) was added and renilla luciferase luminescence was read on an Envision after a ten minute incubation. […] Agonist compounds increase RORγt-driven luciferase expression, and antagonist or inverse agonist compounds decrease luciferase expression.

[2] = target: T2, human RORγt ligand binding domain (RORγt LBD) (Homo sapiens, UniProt P51449); assay: RORγt ThermoFluor assay (ligand binding affinity from protein thermal stability)
T2 construct: His-tag (N); TurboTEV protease cleavage site (ENLYFQG) (N); made in house; host or cells: E. coli (pHIS1, modified pET vector)
T2 sequence (P51449 with tags, fused parts or gaps): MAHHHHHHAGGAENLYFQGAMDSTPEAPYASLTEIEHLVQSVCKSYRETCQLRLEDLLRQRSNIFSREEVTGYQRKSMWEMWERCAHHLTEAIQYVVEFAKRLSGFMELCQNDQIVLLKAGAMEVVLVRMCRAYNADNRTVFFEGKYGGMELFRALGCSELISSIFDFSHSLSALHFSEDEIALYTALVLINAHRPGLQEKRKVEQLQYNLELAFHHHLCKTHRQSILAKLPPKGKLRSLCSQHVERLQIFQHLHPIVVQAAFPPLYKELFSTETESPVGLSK
Protocol: This approach is applicable to a wide variety of systems, and rigorous in theoretical interpretation through quantitation of equilibrium binding constants (KD).
The shift in the melting point described as a ΔTm is proportional to the concentration and affinity of the ligand.
RORγt ThermoFluor® Assay Construct
Protein and compound solutions are dispensed into black 384-well polypropylene PCR microplates (Abgene) and overlayed with silicone oil (1 μL, Fluka, type DC 200) to prevent evaporation.
Bar-coded assay plates are robotically loaded onto a thermostatically controlled PCR-type thermal block and then heated at a typical ramp-rate of 1° C./min for all experiments. Fluorescence was measured by continuous illumination with UV light (Hamamatsu LC6) supplied via fiber optic and filtered through a band-pass filter (380-400 nm; >6 OD cutoff). Fluorescence emission of the entire 384-well plate was detected by measuring light intensity using a CCD camera (Sensys, Roper Scientific) filtered to detect 500±25 nm, resulting in simultaneous and independent readings of all 384 wells. Images were collected at each temperature, and the sum of the pixel intensity in a given area of the assay plate was recorded versus temperature. Reference wells contained RORγt without compounds, and the assay conditions were as follows: • 0.065 mg/mL RORγt • 60 μM 1,8-ANS • 100 mM Hepes, pH 7.0 • 10 mM NaCl • 2.5 mM GSH • 0.002% Tween-20
Project compounds were arranged in a pre-dosed mother plate (Greiner Bio-one) wherein compounds are serially diluted in 100% DMSO by 1:2 from a high concentration of 10 mM over 12 columns within a series (column 12 is a reference well containing DMSO, no compound). The compounds were robotically dispensed directly into assay plates (1×=[…]) using a Hummingbird capillary liquid handling instrument (Digilab). Following compound dispense, protein and dye in buffer was added to achieve the final assay volume of 3 μL, followed by 1 μL of silicone oil.

IC50 [1]	inhibition at 6 µM [1] [%]	Kd [2] [nM]	RORγt (LBD) Reporter Assay, % inhibition @ 6 μM [1] [%]	Structure (SMILES)
1200 nM	86	1100	–	COc1nc2ccc(C(O)(c3ccc(Cl)cc3)c3cncn3C)cc2c(Cl)c1Cc1ccc(C(F)(F)F)nc1 (single isomer, unassigned) [Example 39b]
~6000 nM	53	250	–	COc1nc2ccc(C(O)(c3ccc(C)nc3C)c3cnnn3C)cc2c(Cl)c1Cc1ccc(F)cc1 (single isomer, unassigned) [Example 48b, (4-Chloro-3-(4-fluorobenzyl)-2-methoxyquinolin-6-yl)(2,6-dimethylpyridin-3-yl)(1-methyl-1H-1,2,3-triazol-5-yl)methanol]
1400 nM	–	120	–	Cn1cncc1C(O)(c1ccc(C(F)(F)F)nc1)c1ccc2nc(-n3cccn3)c(Cc3ccccc3)c(C#N)c2c1 (single isomer, unassigned) [Example 114b, 3-Benzyl-6-(hydroxy(1-methyl-1H-imidazol-5-yl)(6-(trifluoromethyl)pyridin-3-yl)methyl)-2-(1H-pyrazol-1-yl)quinoline-4-carbonitrile•TFA]
1900 nM	–	710	–	Cn1cncc1C(O)(c1ccc(C(F)(F)F)nc1)c1ccc2nc(-n3cccn3)c(Cc3ccccc3)c(C#N)c2c1 (single isomer, unassigned) [Example 114c, 3-Benzyl-6-(hydroxy(1-methyl-1H-imidazol-5-yl)(6-(trifluoromethyl)pyridin-3-yl)methyl)-2-(1H-pyrazol-1-yl)quinoline-4-carbonitrile•TFA]
–	73	–	–	CCN(CC)c1nc2ccc(C(O)(c3ccc(Cl)cc3)c3cncn3C)cc2c(C#N)c1Cc1ccc(-n2cccn2)cc1 (single isomer, unassigned) [Example 154c, 3-(4-(1H-pyrazol-1-yl)benzyl)-6-((4-chlorophenyl)(hydroxy)(1-methyl-1H-imidazol-5-yl)methyl)-2-(diethylamino)quinoline-4-carbonitrile]
~4000 nM	–	–	–	COc1c(Cc2ccccc2)c(C(F)(F)F)nc2ccc(C(O)(c3ccc(C(F)(F)F)nc3)c3cncn3C)cc12 (centres unmarked) [Example 106a, (3-Benzyl-4-methoxy-2-(trifluoromethyl)quinolin-6-yl)(1-methyl-1H-imidazol-5-yl)(6-(trifluoromethyl)pyridin-3-yl)methanol•TFA]

Second part, the compound before the results:

Structure (SMILES)	IC50 [1]	inhibition at 6 µM [1] [%]	Kd [2] [nM]	RORγt (LBD) Reporter Assay, % inhibition @ 6 μM [1] [%]
COc1nc2ccc(C(O)(c3ccc(C)nc3C)c3cnnn3C)cc2c(C#N)c1Cc1ccc(F)cc1 (single isomer, unassigned) [Example 49b, 6-((2,6-Dimethylpyridin-3-yl)(hydroxy)(1-methyl-1H-1,2,3-triazol-5-yl)methyl)-3-(4-fluorobenzyl)-2-methoxyquinoline-4-carbonitrile]	~3000 nM	–	410	62
COc1nc2ccc(C(O)(c3ccc(C)nc3C)c3cnnn3C)cc2c(C#N)c1Cc1ccc(F)cc1 (single isomer, unassigned) [Example 49c, 6-((2,6-Dimethylpyridin-3-yl)(hydroxy)(1-methyl-1H-1,2,3-triazol-5-yl)methyl)-3-(4-fluorobenzyl)-2-methoxyquinoline-4-carbonitrile]	38 nM and ~20 nM	–	2.7	83
COc1nc2ccc(C(O)(c3cnnn3C)c3cnc(C)n3C)cc2c(Cl)c1Cc1ccc(F)cc1 (single isomer, unassigned) [Example 65b]	22 nM	74	0.095	–
COc1nc2ccc(C(O)(c3cnnn3C)c3cnc(C)n3C)cc2c(Cl)c1Cc1ccc(F)cc1 (single isomer, unassigned) [Example 65c]	7.2 nM	–	0.48	–
COc1c(Cc2ccccc2)c(C(F)(F)F)nc2ccc(C(O)(c3ccc(Cl)cc3)c3cncn3C)cc12 (single isomer, unassigned) [Example 101c, (3-Benzyl-4-methoxy-2-(trifluoromethyl)quinolin-6-yl)(4-chlorophenyl)(1-methyl-1H-imidazol-5-yl)methanol]	–	–	–	89
Cn1cncc1C(O)(c1ccc(C(F)(F)F)nc1)c1ccc2nc(-c3nccn3C)c(Cc3ccccc3)c(Cl)c2c1 (single isomer, unassigned) [Example 113c, (3-Benzyl-4-chloro-2-(1-methyl-1H-imidazol-2-yl)quinolin-6-yl)(1-methyl-1H-imidazol-5-yl)(6-(trifluoromethyl)pyridin-3-yl)methanol•TFA]	~2000 nM	–	1200	–
CC(=O)N1CCC(C(O)(c2ccc3nc(C(F)(F)F)c(Cc4ccccc4)c(Cl)c3c2)c2cncn2C)CC1 (single isomer, unassigned) [Example 115b, 1-(4-((3-Benzyl-4-chloro-2-(trifluoromethyl)quinolin-6-yl)(hydroxy)(1-methyl-1H-imidazol-5-yl)methyl)piperidin-1-yl)ethanone•TFA]	480 nM	–	58	–
CC(=O)N1CCC(C(O)(c2ccc3nc(C(F)(F)F)c(Cc4ccccc4)c(Cl)c3c2)c2cncn2C)CC1 (single isomer, unassigned) [Example 115c, 1-(4-((3-Benzyl-4-chloro-2-(trifluoromethyl)quinolin-6-yl)(hydroxy)(1-methyl-1H-imidazol-5-yl)methyl)piperidin-1-yl)ethanone•TFA]	110 nM	–	17	–
COc1nc2ccc(C(N)(c3ccc(C(F)(F)F)nc3)c3cncn3C)cc2c(Cl)c1Cc1ccccc1 (single isomer, unassigned) [Example 120b, (3-Benzyl-4-chloro-2-methoxyquinolin-6-yl)(1-methyl-1H-imidazol-5-yl)(6-(trifluoromethyl)pyridin-3-yl)methanamine•TFA]	> 6000 nM	–	130	–
COc1nc2ccc(C(N)(c3ccc(C(F)(F)F)nc3)c3cncn3C)cc2c(Cl)c1Cc1ccccc1 (single isomer, unassigned) [Example 120c, (3-Benzyl-4-chloro-2-methoxyquinolin-6-yl)(1-methyl-1H-imidazol-5-yl)(6-(trifluoromethyl)pyridin-3-yl)methanamine•TFA]	~6000 nM	–	1100	–
CCN(CC)c1nc2ccc(C(O)(c3ccc(Cl)cc3)c3cncn3C)cc2c(C#N)c1Cc1ccc(-n2cccn2)cc1 (single isomer, unassigned) [Example 154b, 3-(4-(1H-pyrazol-1-yl)benzyl)-6-((4-chlorophenyl)(hydroxy)(1-methyl-1H-imidazol-5-yl)methyl)-2-(diethylamino)quinoline-4-carbonitrile]	–	101	–	–

Reference: patent US9284308B2, “Methylene linked quinolinyl modulators of RORγt” (Janssen Pharmaceutica NV, priority 2013, dated 2016)
